Assay results as given in US7109380B2, “Cyclopentenedione antifungal compounds and methods for their use” (The University of Mississippi, priority 2004, dated 2006).
Converted amounts (≈) assume the structure as drawn. Where two headings read alike, the source gives them in different places.

How the values were obtained:
[1] = test system: Cryptococcus neoformans ATCC 90113; assay: In vitro antifungal susceptibility testing (modified NCCLS method); format: cell-based; details: for MFC / MIC: ATCC90113
[2] = test system: M. intracellulare ATCC 23068; assay: In vitro antibacterial assay (modified method of Franzblau, Alamar Blue); format: cell-based; details: Mycobacterium intracellulare
[3] = test system: Colletotrichum gloeosporioides; assay: 96-well microtiter fungal growth assay; format: cell-based;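 on Mean percent fungal growth inhibition of Colletotrichum gloeosporoides: percent relative to untreated positive growth controls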
Summary of the method: (§1)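 Conidial suspensions adjusted to 1.0×10^6 conidia/mL challenged with compounds at final 0.3, 3.0 and 30.0 μM, duplicate per dose, repeated twice. Incubated at 24±1 °C with 12 h photoperiod; growth measured as absorbance at 620 nm at 48 and 72 h (120 h for Phomopsis). Means compared by ANOVA and Fisher's protected LSD.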

[4] = test system: Colletotrichum fragariae; assay: 96-well microtiter fungal growth assay; format: cell-based;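 on Mean percent fungal growth inhibition of Colletotrichum fragariae: percent relative to untreated positive growth controls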
Summary of the method: as §1

[5] = test system: Colletotrichum acutatum; assay: 96-well microtiter fungal growth assay; format: cell-based;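 on Mean percent fungal growth inhibition of Colletotrichum acutatum: percent relative to untreated positive growth controls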
Summary of the method: as §1

[6] = test system: Fusarium oxysporum; assay: 96-well microtiter fungal growth assay; format: cell-based;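 on Mean percent fungal growth inhibition of Fusarium oxysporum: percent relative to untreated positive growth controls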
Summary of the method: as §1

[7] = test system: Botrytis cinerea; assay: 96-well microtiter fungal growth assay; format: cell-based;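 on Mean percent fungal growth inhibition of Botrytis cinerea: percent relative to untreated positive growth controls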
[8] = test system: Candida albicans ATCC 90028; assay: In vitro antifungal susceptibility testing (modified NCCLS method), media pH 7.3; format: cell-based
[9] = test system: C. krusei ATCC 6258; assay: In vitro antimicrobial assay (modified NCCLS), Candida media pH 4.5; format: cell-based, Candida krusei; details: Pichia kudriavzevii, ATCC6258, pH 4.5, read-out: IC50 (50% inhibitory concentration)
[10] = test system: C. glabrata ATCC 90030; assay: as above; format: cell-based, Candida glabrata; details: Nakaseomyces glabratus

COC(/C=C/c1ccccc1)=C1\C(=O)C=C(C)C1=O [Compound 1, coruscanone A]
MFC ([1]; Cryptococcus neoformans ATCC 90113, Table 1, read-out: MFC (Minimum Fungicidal Concentration)): 6.25 µg/mL (≈ 24.6 µM)
MIC ([1]; Cryptococcus neoformans ATCC 90113, Table 1, read-out: MIC (Minimum Inhibitory Concentration)): 6.25 µg/mL (≈ 24.6 µM)
IC50 ([1]; Cryptococcus neoformans, ATCC90113, read-out: IC50 (50% inhibitory concentration)): 1.5 µg/mL (≈ 5.9 µM)
MFC ([1]; Cryptococcus neoformans, Cr. neoformans ATCC 90113, Table 3, read-out: MFC): 2.5 µg/mL (≈ 9.83 µM)
MIC ([1]; Cryptococcus neoformans, Cr. neoformans ATCC 90113, Table 3, read-out: MIC): 2.5 µg/mL (≈ 9.83 µM)
IC50 ([2]; ATCC23068, read-out: IC50 (50% inhibitory concentration)): 1.5 µg/mL (≈ 5.9 µM)
MIC ([2]; ATCC23068, M. intracellulare ATCC 23068): 2.5 µg/mL (≈ 9.83 µM)
MBC ([2]; ATCC23068, M. intracellulare ATCC 23068, read-out: MBC (Minimum Bactericidal Concentration)): 5 µg/mL (≈ 19.7 µM)
Mean percent fungal growth inhibition of Colletotrichum gloeosporoides ([3]; 0.3 μm, 48 hrs): 37.7 ± 9.0%
Mean percent fungal growth inhibition of Colletotrichum gloeosporoides ([3]; 0.3 μm, 72 hrs): 46.7 ± 3.9%
Mean percent fungal growth inhibition of Colletotrichum gloeosporoides ([3]; 3.0 μm, 48 hrs): −79.9 ± 2.8%
Mean percent fungal growth inhibition of Colletotrichum gloeosporoides ([3]; 3.0 μm, 72 hrs): −13.8 ± 3.7%
Mean percent fungal growth inhibition of Colletotrichum gloeosporoides ([3]; 30 μm, 48 hrs): −95.2 ± 2.2%
Mean percent fungal growth inhibition of Colletotrichum gloeosporoides ([3]; 30 μm, 72 hrs): −94.4 ± 1.6%
IC50 ([3]; Colletotrichum gloeosporioides, C. gleoesporioides, 96-well microbioassay, read-out: IC50 (growth inhibition)): < 3.1 µM
Mean percent fungal growth inhibition of Colletotrichum fragariae ([4]; 0.3 μm, 48 hrs): −14.1 ± 10.8%
Mean percent fungal growth inhibition of Colletotrichum fragariae ([4]; 0.3 μm, 72 hrs): −4.8 ± 5.0%
Mean percent fungal growth inhibition of Colletotrichum fragariae ([4]; 3.0 μm, 48 hrs): −94.0 ± 1.9%
Mean percent fungal growth inhibition of Colletotrichum fragariae ([4]; 3.0 μm, 72 hrs): −54.6 ± 18.7%
Mean percent fungal growth inhibition of Colletotrichum fragariae ([4]; 30 μm, 48 hrs): −96.9 ± 1.9%
Mean percent fungal growth inhibition of Colletotrichum fragariae ([4]; 30 μm, 72 hrs): −67.4 ± 18.3%
IC50 ([4]; Colletotrichum fragariae, C. fragariae, 96-well microbioassay, read-out: IC50 (growth inhibition)): < 3.1 µM
Mean percent fungal growth inhibition of Colletotrichum acutatum ([5]; 0.3 μm, 48 hrs): 49.7 ± 6.6%
Mean percent fungal growth inhibition of Colletotrichum acutatum ([5]; 0.3 μm, 72 hrs): 38.0 ± 3.0%
Mean percent fungal growth inhibition of Colletotrichum acutatum ([5]; 3.0 μm, 48 hrs): −73.1 ± 4.9%
Mean percent fungal growth inhibition of Colletotrichum acutatum ([5]; 3.0 μm, 72 hrs): −21.8 ± 4.4%
Mean percent fungal growth inhibition of Colletotrichum acutatum ([5]; 30 μm, 48 hrs): −95.8 ± 1.9%
Mean percent fungal growth inhibition of Colletotrichum acutatum ([5]; 30 μm, 72 hrs): −97.6 ± 0.8%
IC50 ([5]; Colletotrichum acutatum, C. acutatum, 96-well microbioassay, read-out: IC50 (growth inhibition)): < 3.1 µM
Mean percent fungal growth inhibition of Fusarium oxysporum ([6]; 0.3 μm, 48 hrs): 2.4 ± 4.7%
Mean percent fungal growth inhibition of Fusarium oxysporum ([6]; 0.3 μm, 72 hrs): 12.2 ± 2.1%
Mean percent fungal growth inhibition of Fusarium oxysporum ([6]; 3.0 μm, 48 hrs): −76.9 ± 1.6%
Mean percent fungal growth inhibition of Fusarium oxysporum ([6]; 3.0 μm, 72 hrs): −24.2 ± 3.3%
Mean percent fungal growth inhibition of Fusarium oxysporum ([6]; 30 μm, 48 hrs): −99.3 ± 0.2%
Mean percent fungal growth inhibition of Fusarium oxysporum ([6]; 30 μm, 72 hrs): −98.9 ± 0.2%
IC50 ([6]; Fusarium oxysporum, F. oxysporum, 96-well microbioassay, read-out: IC50 (growth inhibition)): < 12.5 µM
Mean percent fungal growth inhibition of Botrytis cinerea ([7]; 0.3 μm, 48 hrs): −7.3 ± 12.8%
Mean percent fungal growth inhibition of Botrytis cinerea ([7]; 0.3 μm, 72 hrs): 28.1 ± 8.3%
Mean percent fungal growth inhibition of Botrytis cinerea ([7]; 3.0 μm, 48 hrs): −45.2 ± 16.4%
Mean percent fungal growth inhibition of Botrytis cinerea ([7]; 3.0 μm, 72 hrs): −15.7 ± 10.6%
Mean percent fungal growth inhibition of Botrytis cinerea ([7]; 30 μm, 48 hrs): −69.6 ± 9.8%
Mean percent fungal growth inhibition of Botrytis cinerea ([7]; 30 μm, 72 hrs): −88.4 ± 5.6%
IC50 ([7]; Botrytis cinerea, 48 h, read-out: IC50 (growth inhibition)): < 1.55 µM
Antifungal activity against C. albicans (in words) [8]: potent activity
MFC ([8]; ATCC90028, Candida albicans ATCC 90028, Table 1, read-out: MFC (Minimum Fungicidal Concentration)): 1.56 µg/mL (≈ 6.13 µM)
MIC ([8]; ATCC90028, Candida albicans ATCC 90028, Table 1, read-out: MIC (Minimum Inhibitory Concentration)): 0.78 µg/mL (≈ 3.07 µM)
Antifungal activity against C. albicans (in words) ([8]; listed as coruscanone A): comparable to or stronger than those of positive control drugs
IC50 [9]: 2.5 µg/mL (≈ 9.83 µM)
IC50 ([10]; ATCC90030, pH 4.5, read-out: IC50 (50% inhibitory concentration)): 2.5 µg/mL (≈ 9.83 µM)
MIC ([10]; ATCC90030, C. glabrata ATCC 90030, pH 4.5, read-out: MIC): 5 µg/mL (≈ 19.7 µM)
